Test results reported in article PMC7504215, “Copper(II) Complexes with Mixed Heterocycle Ligands as Promising Antibacterial and Antitumor Species” (Molecules, 2020).
≈ marks a conversion by molar mass, not a printed value. Like-named read-outs stand apart in the source and are kept apart here.

How the values were obtained:
E. coli 25922 [1] = assay: MIC assay, liquid medium microdilution (planktonic growth); type: cell-based, Escherichia coli
Description: (§1) The antibacterial assays were performed on Gram-negative (Escherichia coli ATCC 25922, E. coli 5, Pseudomonas aeruginosa ATCC 27853, P. aeruginosa ATCC 9027) and Gram-positive (Staphylococcus aureus ATCC 25923, S. aureus ATCC 6538, MRSA (Meticillin-resistant S. aureus) 388, ATCC, American Type Culture Collection) bacterial strains. Microbial suspensions (1.5 × 10^8 CFU/mL; colony forming units (CFU)) corresponding to 0.5 McFarland density obtained from 15 to 18-h bacterial cultures developed on solid media were used. The antimicrobial activity was tested on Mueller–Hinton agar medium.
(§2) The quantitative assay of the antimicrobial activity was performed by the liquid medium microdilution method, in 96-well multi-well plates, to establish the minimal inhibitory concentration (MIC). For this purpose, serial two-fold dilutions of the compounds ranging between 1.000 and 1.95 μg/mL were performed in a 200 μL volume of broth and each well was seeded with 50 μL microbial inoculums. Sterility control (wells containing only culture medium) and culture controls (wells containing culture medium seeded with the microbial inoculum) were used. The influence of the DMSO solvent was also quantified in a series of wells containing DMSO, diluted accordingly with the dilution scheme used for the complexes. The plates were incubated for 24 h at 37 °C, and MIC values were considered as the lowest concentration of the tested compound that inhibited the visible growth of the microbial overnight cultures.

E. coli 5 ESBL [2] = assay: as above; type: cell-based, Escherichia coli
Description: as §1, §2

P. aeruginosa 27853 [3] = assay: as above; type: cell-based, Pseudomonas aeruginosa
Description: as §1, §2

P. aeruginosa 9027 [4] = assay: as above; type: cell-based, Pseudomonas aeruginosa
Description: as §1, §2

MRSA [5] = assay: as above; type: cell-based, Staphylococcus aureus
Description: as §1, §2

S. aureus 25923 [6] = assay: as above; type: cell-based, Staphylococcus aureus
Description: as §1, §2

S. aureus 6538 [7] = assay: as above; type: cell-based, Staphylococcus aureus
Description: as §1, §2

E. coli 25922 [8] = assay: MBEC assay, micro-titer method (biofilm); type: cell-based, Escherichia coli
Description: as §1
(§3) The assessment of the complexes’ influence on the microbial ability to colonize an inert substratum with the establishment of the minimal biofilm eradication concentration (MBEC) was performed by the micro-titer method, following previously described protocols. The absorbance at 490 nm was measured with an Apollo LB 911ELISA (Berthold Technologies GmbH & Co. KG, Waltham, MA, USA) reader. All experiments were performed in triplicates.

E. coli 5 ESBL [9] = assay: MBEC assay, micro-titer method (biofilm); type: cell-based, Escherichia coli
Description: as §1, §3

P. aeruginosa 27853 [10] = assay: MBEC assay, micro-titer method (biofilm); type: cell-based, Pseudomonas aeruginosa
Description: as §1, §3

P. aeruginosa 9027 [11] = assay: MBEC assay, micro-titer method (biofilm); type: cell-based, Pseudomonas aeruginosa
Description: as §1, §3

MRSA [12] = assay: MBEC assay, micro-titer method (biofilm); type: cell-based, Staphylococcus aureus
Description: as §1, §3

S. aureus 25923 [13] = assay: MBEC assay, micro-titer method (biofilm); type: cell-based, Staphylococcus aureus
Description: as §1, §3

S. aureus 6538 [14] = assay: MBEC assay, micro-titer method (biofilm); type: cell-based, Staphylococcus aureus
Description: as §1, §3

[15] = tested on: B16 (melanoma) tumor cells; assay: MTT cell viability assay; type: cell-based, Mouse; details: any tested concentration (0–25 μg/mL), 24 and 48 h
Description: (§4) The cytotoxicity of ligand and copper(II) complexes was tested on normal BJ cell as well as on B16 (melanoma) tumor cells, which were grown for 48 h in culture medium containing the tested complexes in 0–25 μg/mL concentration range.
(§5) Human fibroblast cells (BJ-ATCC CRL-2522, Manassas, VA, USA) were grown in minimal essential medium (MEM) supplemented with 2 mM L-Glutamine, 10% fetal calf serum (FCS), 100 units/mL of penicillin and 100 µg/mL of streptomycin at 37 °C in a humidified incubator under an atmosphere containing 5% CO2. Mouse melanoma cells (B16-ATCC CRL-6475, Manassas, VA, USA) were grown in DMEM (Dulbecco’s Modified Eagle Medium) supplemented with similar reagents as MEM. All cell cultivation media and reagents were purchased from Biochrom AG (Berlin, Germany) and Sigma-Aldrich (Darmstadt, Germany).
(§6) Cell viability was evaluated using 3-(4,5-dimethylthiazol-2-yl)-2,5-diphenyltetrazolium bromide (MTT) assay, as described previously. First, the cells were seeded in 96-well plates (20,000 cells/well) and cultured for 24 h in medium. After overnight incubation, the medium was changed and the investigated sample in concentration varying from […] was added for 24 h. The negative control was represented by cells cultivated in medium without the investigated compounds. Following incubation, the medium was changed and the MTT solution was added to each well to a final concentration of 1 mg/mL and incubated for additional 4 h, at 37 °C. Finally, the medium was collected and DMSO was used to dissolve the insoluble formazan product. The absorbance of the samples was recorded at 570 nm using a plate reader Mithras 940 (Berthold). The data were corrected for the background and the percentage of viable cells was obtained using the equation:Cell viability = [(A570 of treated cells)/(A570 of untreated cells)] × 100%
(§7) The half-maximal inhibitory concentration (IC50) was determined by fitting the data with a logistical sigmoidal equation using the software Origin 8.1 from Microcal Inc. (Los Angeles, CA, USA).

[16] = tested on: normal BJ cell (human fibroblast); assay: MTT cell viability assay; type: cell-based; details: any tested concentration (0–25 μg/mL), 24 and 48 h
Description: as §4, §5, §6, §7

[17] = Hemolytic activity (adapted ASTM F 756-00); type: cell-based; details: human red blood cells, 4 h at 37 °C, threshold 5% (ASTM F 756-00)
Description: The hemolytic activity of the compounds was determined using an adapted protocol of ASTM F 756–00 standard based on hemoglobin release from human red blood cells (hRBCs) resulting after cell lyses. Briefly, the blood samples were collected from healthy volunteers, diluted to a concentration of hemoglobin ~10 mg/mL with phosphate buffer saline (PBS) and then incubated with various concentrations of compounds for 4 h at 37 °C. After 4 h, the cells were centrifuged, the supernatant was collected, transferred into 96-well tissue culture plates and mixed with Drabkin reagent, which converts hemoglobin to cyanmethemoglobin (absorption peak at 540 nm). After 15 min, the absorbance of the samples was read at 570 nm using a plate reader. The obtained data was background corrected and used to calculate the hemolytic index as percentage of the hemoglobin released after the treatment with the tested compounds, relative to control samples. The hRBCs in PBS and distilled water were used as negative and positive controls.

B16 cells = assay: Phalloidin staining and cell imaging (cytoskeleton, nucleus); type: cell-based, Mouse; details: 24 h, 6 μg/mL
Description: (§8) Cytoskeleton actin filaments of BJ and B16 cells were stained with phalloidin-FITC (Sigma-Aldrich, USA) according to the manufacturer’s protocol. Briefly, cells were washed with PBS (5 min, 3 times), fixed for 5 min with 3% paraformaldehyde, washed three times with PBS, permeabilized with 0.1% Triton X-100 in PBS for 15 min, washed three times with PBS, stained with 20 μg mL^−1 phalloidin-FITC at room temperature for 1 h and washed again three times with PBS. Cell nucleus was stained with 8 μM of Hoechst 33342 solution for 10 min, washed three times with PBS and finally, mounted and sealed on glass slides with FluorSave™ Reagent (Merck Millipore, Germany). The fluorescence images were acquired using an Andor DSD2 Confocal Unit (Andor, Ireland), mounted on an epifluorescence microscope, Olympus BX-51 (Olympus, Germany), equipped with a 40x and 100x objective and an appropriate DAPI/Hoechst filter cube (excitation filter 390/40 m, dichroic mirror 405 nm and emission filter 452/45 nm) and GFP/FITC filter cube (excitation filter 466/40 nm, dichroic mirror 488 nm and emission filter 525/54 nm).

BJ cells = assay: as above; type: cell-based, Human; details: 24 h, 6 μg/mL
Description: as §8

[18] = tested on: human colon adenocarcinoma (HT 29) cell; set-up: method as in doi:10.1007/s10973-016-5425-7; details: cited from earlier work
[19] = Escherichia coli, E. coli 25922, 24 h at 37 °C, read-out: MIC
[20] = Escherichia coli, E. coli 5 ESBL, 24 h at 37 °C, read-out: MIC
[21] = Pseudomonas aeruginosa, P. aeruginosa 27853, 24 h at 37 °C, read-out: MIC
[22] = Pseudomonas aeruginosa, P. aeruginosa 9027 (multi-drug-resistant), 24 h at 37 °C, read-out: MIC
[23] = Staphylococcus aureus, 24 h at 37 °C, read-out: MIC
[24] = Staphylococcus aureus, S. aureus 25923, 24 h at 37 °C, read-out: MIC
[25] = Staphylococcus aureus, S. aureus 6538, 24 h at 37 °C, read-out: MIC
[26] = P. aeruginosa 27853, 24 h at 37 °C
[27] = P. aeruginosa 9027 (multi-drug-resistant), 24 h at 37 °C

Compound | MBEC value (E. coli 25922 [8]) | MBEC value (E. coli 5 ESBL [9]) | MBEC value (P. aeruginosa 27853 [10]) | MBEC value (P. aeruginosa 9027 [11]) | MBEC value (MRSA [12]) | MBEC value (S. aureus 25923 [13]) | MBEC value (S. aureus 6538 [14]) | MIC (E. coli 25922 [1]; [19]) | MIC (E. coli 5 ESBL [2]; [20]) | MIC (P. aeruginosa 27853 [3]; [21]) | MIC (P. aeruginosa 9027 [4]; [22]) | MIC (MRSA [5]; [23]) | MIC (S. aureus 25923 [6]; [24]) | MIC (S. aureus 6538 [7]; [25]) | MIC (E. coli 25922 [1]; E. coli 25922, 24 h at 37 °C) | MIC (E. coli 5 ESBL [2]; E. coli 5 ESBL, 24 h at 37 °C) | MIC (P. aeruginosa 27853 [3]; [26]) | MIC (P. aeruginosa 9027 [4]; [27]) | MIC (MRSA [5]; 24 h at 37 °C) | MIC (S. aureus 25923 [6]; S. aureus 25923, 24 h at 37 °C) | also measured
c1ccc(-c2ccccn2)nc1 [bpy, 2,2′-bipyridine] | 8.00 mM | 8.00 mM | 8.00 mM | 4.00 mM | 8.00 mM | 4.00 mM | 8.00 mM | – | – | – | – | – | – | – | – | – | – | – | – | – | MIC (E. coli 25922 [1]; Escherichia coli, 25922, 24 h): 4 mM (≈ 625 µg/mL); MIC (E. coli 5 ESBL [2]; Escherichia coli, 5ESBL, 24 h): 4 mM (≈ 625 µg/mL); MIC (P. aeruginosa 27853 [3]; Pseudomonas aeruginosa, 27853, 24 h): 8 mM (≈ 1250 µg/mL); MIC (P. aeruginosa 9027 [4]; Pseudomonas aeruginosa, 9027, 24 h): 4 mM (≈ 625 µg/mL); MIC (MRSA [5]; Staphylococcus aureus, 24 h): 8 mM (≈ 1250 µg/mL); MIC (S. aureus 25923 [6]; Staphylococcus aureus, 25923, 24 h): 8 mM (≈ 1250 µg/mL); MIC (S. aureus 6538 [7]; Staphylococcus aureus, 6538, 24 h): 8 mM (≈ 1250 µg/mL)
c1cnc2c(c1)ccc1cccnc12 [phen, 1,10-phenanthroline] | 7.00 mM | 3.50 mM | 7.00 mM | 3.50 mM | 7.00 mM | 7.00 mM | 7.00 mM | 3.5 mM (≈ 631 µg/mL) | 3.5 mM (≈ 631 µg/mL) | 7 mM (≈ 1260 µg/mL) | 3.5 mM (≈ 631 µg/mL) | 7 mM (≈ 1260 µg/mL) | 7 mM (≈ 1260 µg/mL) | 7 mM (≈ 1260 µg/mL) | – | – | – | – | – | – | –
{[Cu(bpy)2(μ2OClO3)]·ClO4}n [CuBP] | 0.54 mM | 0.54 mM | 1.09 mM | 1.09 mM | 0.27 mM | 0.14 mM | 0.14 mM | – | – | – | – | – | – | – | 0.54 mM | 0.54 mM | 1.09 mM | 1.09 mM | 0.27 mM | 0.27 mM | MIC (S. aureus 6538 [7]; S. aureus 6538, 24 h at 37 °C): 0.27 mM
Cc1cc(-c2ccccc2)nc2ncnn12 [pmtp, 5-phenyl-7-methyl-1,2,4-triazolo[1,5-a]pyrimidine] | 6.00 mM | 3.00 mM | 3.00 mM | 1.50 mM | 6.00 mM | 6.00 mM | 3.00 mM | 3 mM (≈ 631 µg/mL) | 3 mM (≈ 631 µg/mL) | 3 mM (≈ 631 µg/mL) | 3 mM (≈ 631 µg/mL) | 6 mM (≈ 1260 µg/mL) | 6 mM (≈ 1260 µg/mL) | 3 mM (≈ 631 µg/mL) | – | – | – | – | – | – | Effect on viability of B16 cells [15]: did not affect the viability of the two cell lines; Effect on viability of BJ cells [16]: did not affect the viability of the two cell lines; hemolysis at 4 h, 25 µg/mL [17]: 0.61 ± 0.05%; Cell morphology (cytoskeleton and nucleus) (B16 cells): does not alter the morphology of the cells; Cell morphology (cytoskeleton and nucleus) (BJ cells): does not alter its morphology
O.[Cu+2].[O-][Cl+3]([O-])([O-])[O-].[O-][Cl+3]([O-])([O-])[O-].c1cnc2c(c1)ccc1cccnc12.c1cnc2c(c1)ccc1cccnc12 [CuPP, [Cu(phen)2(OH2)](ClO4)2] | 0.10 mM | 0.30 mM | 0.50 mM | 0.50 mM | 0.10 mM | 0.03 mM | 0.03 mM | – | – | – | – | – | – | – | 0.03 mM | 0.03 mM | 0.50 mM | 0.50 mM | 0.12 mM | 0.03 mM | MIC (S. aureus 6538 [7]; S. aureus 6538, 24 h at 37 °C): 0.03 mM
CC(=O)[O-].CC(=O)[O-].Cc1cc(-c2ccccc2)nc2ncnn12.[Cu+2] [[Cu(pmtp)(CH3COO)2]·0.5H2O] | – | – | – | – | – | – | – | – | – | – | – | – | – | – | – | – | – | – | – | – | Antiproliferative effect [18]: dose-dependent antiproliferative effect
